Results reported in BindingDB's records for doi:10.1021/jm00095a009 (Dupont Pharmaceuticals, 1992).

Biological target: Phospholipase A2 (Crotalus adamanteus)
Test: Inhibitory activity against phospholipase A2 of Croatalus adamanteus

IC50	SMILES
> 1000 µM	Oc1c(Cc2ccccc2)ccc2ccccc12
> 1000 µM	OC(Cn1ccnc1)(c1ccc(F)cc1)c1ccc(-c2ccncc2)cc1 (stereo not drawn)
> 1000 µM	Cc1ccc(C(O)(Cn2ccnc2)c2ccc(-c3ccncc3)cc2)cc1 (stereo not drawn)
